Activity, inhibition and IC50 data for 2 molecules are collected here from ChEMBL document CHEMBL4610025, “Discovery of a follistatin-derived myostatin inhibitory peptide” (Bioorg Med Chem Lett, 2020).

pIC50: −log10 of the molar value. The source made the active and inactive calls. The calls are words filed in the database; no cut-off is given here. Non-standard residues stand in square brackets, D forms with d. Residues, ends and D or L forms follow the SMILES beside them. Chg = N[C@H](C(=O)O)C1CCCCC1

One assay deals with Mus musculus. Briefly: Effect on muscle growth in C57BL/6J mouse assessed as increase in tibialis anterior muscle weight at 20 nmol administered intramuscularly measured at day 28 relative to control. It counts as functional.
Another assay deals with HEK293. In words: Inhibition of activin A (unknown origin) expressed in HEK293 cells at 0.3 to 10 uM incubated for 4 hrs by dual luciferase reporter gene assay. Format: cell-based. The conditions noted are these: Homo sapiens.
Assay [1] deals with Growth/differentiation factor 8 (Homo sapiens) (UniProt O14793). In words: (§1) Inhibition of myostatin (unknown origin) expressed in HEK293 cells incubated for 4 hrs by dual luciferase reporter gene assay. It counts as cell-based.
Assay [2] has as its target T1, Growth/differentiation factor 8 (Homo sapiens, UniProt O14793).
T1 sequence (O14793 whole entry): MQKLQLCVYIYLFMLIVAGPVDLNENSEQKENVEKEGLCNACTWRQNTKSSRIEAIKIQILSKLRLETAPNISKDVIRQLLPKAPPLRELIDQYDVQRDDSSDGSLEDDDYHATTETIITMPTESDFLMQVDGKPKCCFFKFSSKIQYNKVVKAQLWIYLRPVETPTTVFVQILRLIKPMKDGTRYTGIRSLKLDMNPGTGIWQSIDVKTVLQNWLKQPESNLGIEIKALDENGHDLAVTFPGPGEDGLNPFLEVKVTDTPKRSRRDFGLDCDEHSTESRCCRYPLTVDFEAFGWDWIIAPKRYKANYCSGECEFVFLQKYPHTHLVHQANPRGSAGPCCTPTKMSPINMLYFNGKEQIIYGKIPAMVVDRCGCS
Described as §1. It counts as cell-based.

The target of assay [3] is Transforming growth factor beta-1 proprotein (Homo sapiens) (UniProt P01137). Briefly: Inhibition of TGFbeta1 (unknown origin) expressed in HEK293 cells at 0.3 to 10 uM incubated for 4 hrs by dual luciferase reporter gene assay. Format: cell-based.
In assay [4] the target is Growth/differentiation factor 8 (Homo sapiens) (UniProt O14793). Briefly: Inhibition of myostatin (unknown origin) expressed in HEK293 cells at 10 uM incubated for 4 hrs by dual luciferase reporter gene assay. It counts as cell-based.

Chain of Transforming growth factor beta-1 proprotein (Homo sapiens) (P01137 279-390 limits assumed): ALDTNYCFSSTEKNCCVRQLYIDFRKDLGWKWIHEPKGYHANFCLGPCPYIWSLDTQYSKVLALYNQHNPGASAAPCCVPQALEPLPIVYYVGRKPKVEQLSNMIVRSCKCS

As to `CC[C@H](C)[C@H](NC(=O)[C@H](CCSC)NC(=O)[C@H](Cc1c[nH]c2ccccc12)NC(=O)[C@H](CCCCN)NC(=O)[C@H](Cc1ccccc1)NC(=O)[C@H](CC(C)C)NC(=O)[C@@H](NC(=O)[C@H](CC(N)=O)NC(=O)[C@H](CC(=O)O)NC(=O)[C@H](CC(N)=O)NC(=O)[C@@H](N)C(C)C)[C@@H](C)O)C(=O)N[C@@H](Cc1ccccc1)C(=O)N[C@@H](CC(N)=O)C(=O)NCC(N)=O` (H-VNDNTLFKWMIFNG-NH2), the Activity in the assay with Mus musculus is 112%. For the same molecule, the inhibition entry (with HEK293; in assay [3]) was “inactive” in each case. For the same molecule, in assay [1], the inhibition entry is “Dose-dependent effect”. The same molecule had a pIC50 in assay [2] of 5.21. Besides, in assay [4], the inhibition result was “Active”.
In turn, `CC[C@H](C)[C@H](NC(=O)[C@H](CCC(N)=O)NC(=O)[C@@H](NC(=O)[C@H](CCCCN)NC(=O)[C@@H](NC(=O)[C@@H](Cc1c[nH]c2ccccc12)NC(=O)[C@H](CCCNC(=N)N)NC(=O)[C@@H](NC(=O)[C@H](Cc1ccc(O)cc1)NC(=O)[C@@H](N)Cc1c[nH]c2ccccc12)[C@@H](C)CC)[C@@H](C)CC)C1CCCCC1)C(=O)N[C@@H](Cc1c[nH]c2ccccc12)C(=O)N[C@@H](CO)C(=O)N[C@@H](CCCCN)C(=O)N[C@H](C(=O)N[C@@H](CCCNC(=N)N)C(=O)N[C@@H](CC(C)C)C(N)=O)C1CCCCC1` (H-WYIR[dW]IK[Chg]QIWSK[Chg]RL-NH2) showed a pIC50 in assay [2] of 5.45.
